Test results taken from patent US20250186437A1, “CARBOLINE COMPOUNDS AND USE THEREOF” (PTC Therapeutics, Inc., priority 2021, published 2025).

Test system: MOLM-13 cells
Experiment: MOLM-13 Cell Proliferation Assay (indicator of DHODH inhibition)
Type: cell-based
Details: Homo sapiens, 72 Hours of culture, CellTiter-Glo, no uridine
In short: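 Proliferation readout via CellTiter-Glo luminescence after 72 h compound treatment (37 °C, 5% CO2, 0.5% DMSO) of MOLM-13 cells seeded at 10^4 per well in RPMI 1640/10% FBS, used as a DHODH-inhibition indicator since these cells rely on de novo pyrimidine synthesis.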

In order of rising IC50:
1. Cc1nc(N2CCc3c([nH]c4ccc(Cl)cc34)[C@@H]2c2ccc(N3CCOCC3)nc2)nc(C(F)(F)F)n1 [Compound 465, (1S)-6-chloro-2-[4-methyl-6-(trifluoromethyl)-1,3,5-triazin-2-yl]-1-[6-(morpholin-4-yl)pyridin-3-yl]-2,3,4,9-tetrahydro-1H-pyrido[3,4-b]indole]  0.6 nM
2. FC(F)(F)c1cc(C(F)(F)F)nc(N2CCc3c([nH]c4ccc(-n5nccn5)cc34)[C@@H]2c2ccc(N3CCOCC3)nc2)n1 [Compound 485, (1S)-2-[4,6-bis(trifluoromethyl)pyrimidin-2-yl]-1-[6-(morpholin-4-yl)pyridin-3-yl]-6-(2H-1,2,3-triazol-2-yl)-2,3,4,9-tetrahydro-1H-pyrido[3,4-b]indole]  0.6 nM
3. Cc1cc(C#N)nc(N2CCc3c([nH]c4cc(F)c(Cl)cc34)C2c2ccc(C)c(F)c2F)n1 (stereo not drawn) [Compound 153, 2-[6-chloro-1-(2,3-difluoro-4-methylphenyl)-7-fluoro-1,3,4,9-tetrahydro-2H-pyrido[3,4-b]indol-2-yl]-6-methylpyrimidine-4-carbonitrile]  1.1 nM
4. FC(F)(F)c1ccnc(N2CCc3c([nH]c4ccc(Br)cc34)C2c2cnc(N3CCOCC3)nc2)n1 (stereo not drawn) [Compound 298, 6-bromo-1-[2-(morpholin-4-yl)pyrimidin-5-yl]-2-[4-(trifluoromethyl)pyrimidin-2-yl]-2,3,4,9-tetrahydro-1H-pyrido[3,4-b]indole]  1.2 nM
5. Cc1ccc(C2c3[nH]c4ccc(Cl)c(F)c4c3CCN2c2nccc(C#N)n2)c(F)c1F (stereo not drawn) [Compound 198, 2-[6-chloro-1-(2,3-difluoro-4-methylphenyl)-5-fluoro-1,3,4,9-tetrahydro-2H-pyrido[3,4-b]indol-2-yl]pyrimidine-4-carbonitrile]  1.2 nM
6. Cc1ccc([C@H]2c3[nH]c4ccc(Cl)cc4c3CCN2c2ncc(-c3ccccc3)cn2)c(F)c1F [Compound 471, (1S)-6-chloro-1-(2,3-difluoro-4-methylphenyl)-2-(5-phenylpyrimidin-2-yl)-2,3,4,9-tetrahydro-1H-pyrido[3,4-b]indole]  2.5 nM
7. Cc1ccnc(N2CCc3c([nH]c4cc(F)c(Cl)cc34)C2c2ccc(C)c(F)c2F)n1 (stereo not drawn) [Compound 139, 6-chloro-1-(2,3-difluoro-4-methylphenyl)-7-fluoro-2-(4-methylpyrimidin-2-yl)-2,3,4,9-tetrahydro-1H-pyrido[3,4-b]indole]  3.6 nM
8. N#Cc1ccc(C2c3[nH]c4ccc(Cl)cc4c3CCN2c2nccc(C(F)(F)F)n2)cc1 (stereo not drawn) [Compound 447, 4-{6-chloro-2-[4-(trifluoromethyl)pyrimidin-2-yl]-2,3,4,9-tetrahydro-1H-pyrido[3,4-b]indol-1-yl}benzonitrile]  4.8 nM
9. Cc1nc(N2CCc3c([nH]c4cc(F)c(Cl)cc34)C2c2cccc(F)c2F)nc(C)c1C (stereo not drawn) [Compound 171, 6-chloro-1-(2,3-difluorophenyl)-7-fluoro-2-(4,5,6-trimethylpyrimidin-2-yl)-2,3,4,9-tetrahydro-1H-pyrido[3,4-b]indole]  5 nM
10. Cc1cnn(-c2ccc3[nH]c4c(c3c2)CCN(c2nc(C(F)(F)F)cc(C(F)(F)F)n2)C4c2ccc(N3CCOCC3)nc2)n1 (stereo not drawn) [Compound 455, 2-[4,6-bis(trifluoromethyl)pyrimidin-2-yl]-6-(4-methyl-2H-1,2,3-triazol-2-yl)-1-[6-(morpholin-4-yl)pyridin-3-yl]-2,3,4,9-tetrahydro-1H-pyrido[3,4-b]indole]  5.2 nM
11. CNc1ncc(C2c3[nH]c4ccc(Cl)c(F)c4c3CCN2c2nccc(C(F)(F)F)n2)cn1 (stereo not drawn) [Compound 199, 5-{6-chloro-5-fluoro-2-[4-(trifluoromethyl)pyrimidin-2-yl]-2,3,4,9-tetrahydro-1H-pyrido[3,4-b]indol-1-yl}-N-methylpyrimidin-2-amine]  5.4 nM
12. CN(C)c1nc(N2CCc3c([nH]c4ccc(Cl)cc34)[C@@H]2c2cnc(N3CCOCC3)nc2)nc(C(F)(F)F)n1 [Compound 444, 4-{(1S)-6-chloro-1-[2-(morpholin-4-yl)pyrimidin-5-yl]-1,3,4,9-tetrahydro-2H-pyrido[3,4-b]indol-2-yl}-N,N-dimethyl-6-(trifluoromethyl)-1,3,5-triazin-2-amine]  5.8 nM
13. FC(F)(F)c1ccnc(N2CCc3c([nH]c4ccc(Cl)cc34)C2c2ccc(N3C[C@@H]4C[C@H]3CO4)nc2)n1 (stereo partly drawn) [Compound 375, 6-chloro-1-{6-[(1S,4S)-2-oxa-5-azabicyclo[2.2.1]heptan-5-yl]pyridin-3-yl}-2-[4-(trifluoromethyl)pyrimidin-2-yl]-2,3,4,9-tetrahydro-1H-pyrido[3,4-b]indole]  6.7 nM
14. OCc1ccc(C2c3[nH]c4cc(F)c(Cl)cc4c3CCN2c2nccc(C(F)(F)F)n2)cc1 (stereo not drawn) [Compound 166, (4-{6-chloro-7-fluoro-2-[4-(trifluoromethyl)pyrimidin-2-yl]-2,3,4,9-tetrahydro-1H-pyrido[3,4-b]indol-1-yl}phenyl)methanol]  7.1 nM
15. FC(F)(F)c1ccnc(N2CCc3c([nH]c4ccc(Cl)cc34)C2c2cnc(N3C4CCC3COC4)nc2)n1 (stereo not drawn) [Compound 337, 6-chloro-1-[2-(3-oxa-8-azabicyclo[3.2.1]octan-8-yl)pyrimidin-5-yl]-2-[4-(trifluoromethyl)pyrimidin-2-yl]-2,3,4,9-tetrahydro-1H-pyrido[3,4-b]indole]  8.2 nM
16. Cc1cnn(-c2ccc3[nH]c4c(c3c2)CCN(c2nc(C(F)(F)F)cc(C(F)(F)F)n2)C4c2cnc(N3CCOCC3)nc2)n1 (stereo not drawn) [Compound 483, 2-[4,6-bis(trifluoromethyl)pyrimidin-2-yl]-6-(4-methyl-2H-1,2,3-triazol-2-yl)-1-[2-(morpholin-4-yl)pyrimidin-5-yl]-2,3,4,9-tetrahydro-1H-pyrido[3,4-b]indole]  8.5 nM
17. CSc1nc(N2CCc3c([nH]c4ccc(F)cc34)C2c2ccc(C)c(F)c2F)nc(C(F)(F)F)n1 (stereo not drawn) [Compound 495, 1-(2,3-difluoro-4-methylphenyl)-6-fluoro-2-[4-(methylsulfanyl)-6-(trifluoromethyl)-1,3,5-triazin-2-yl]-2,3,4,9-tetrahydro-1H-pyrido[3,4-b]indole]  8.8 nM
18. Fc1cnc(N2CCc3c([nH]c4ccc(Cl)c(F)c34)C2c2ccc(Cl)cc2)nc1 (stereo not drawn) [Compound 26, 6-chloro-1-(4-chlorophenyl)-5-fluoro-2-(5-fluoropyrimidin-2-yl)-2,3,4,9-tetrahydro-1H-pyrido[3,4-b]indole]  18.9 nM
19. Cc1ccnc(N2CCc3c([nH]c4cc(F)c(Cl)cc34)C2c2ccc(N(C)C)nc2)n1 (stereo not drawn) [Compound 126, 5-[6-chloro-7-fluoro-2-(4-methylpyrimidin-2-yl)-2,3,4,9-tetrahydro-1H-pyrido[3,4-b]indol-1-yl]-N,N-dimethylpyridin-2-amine]  21.3 nM
20. Cc1nc(N2CCc3c([nH]c4cc(F)c(Cl)cc34)C2c2ccc(F)cc2)ncc1F (stereo not drawn) [Compound 105, 6-chloro-7-fluoro-2-(5-fluoro-4-methylpyrimidin-2-yl)-1-(4-fluorophenyl)-2,3,4,9-tetrahydro-1H-pyrido[3,4-b]indole]  23.3 nM
21. Fc1ncccc1C1c2[nH]c3ccc(Cl)c(F)c3c2CCN1c1nccc(C(F)(F)F)n1 (stereo not drawn) [Compound 226, 6-chloro-5-fluoro-1-(2-fluoropyridin-3-yl)-2-[4-(trifluoromethyl)pyrimidin-2-yl]-2,3,4,9-tetrahydro-1H-pyrido[3,4-b]indole]  25.4 nM
22. Cc1cnnc(N2CCc3c([nH]c4ccc(Cl)cc34)C2c2cnc(N3CCOCC3)nc2)n1 (stereo not drawn) [Compound 384, 6-chloro-2-(5-methyl-1,2,4-triazin-3-yl)-1-[2-(morpholin-4-yl)pyrimidin-5-yl]-2,3,4,9-tetrahydro-1H-pyrido[3,4-b]indole]  25.6 nM
23. N#Cc1ccc(C2c3[nH]c4ccc(Cl)c(F)c4c3CCN2c2ncc(Cl)cn2)cc1 (stereo not drawn) [Compound 52, 4-[6-chloro-2-(5-chloropyrimidin-2-yl)-5-fluoro-2,3,4,9-tetrahydro-1H-pyrido[3,4-b]indol-1-yl]benzonitrile]  25.7 nM
24. Cc1nc(C)nc(N2CCc3c([nH]c4ccc(Cl)c(N)c34)C2c2cnc(N3CCOCC3)nc2)n1 (stereo not drawn) [Compound 327, 6-chloro-2-(4,6-dimethyl-1,3,5-triazin-2-yl)-1-[2-(morpholin-4-yl)pyrimidin-5-yl]-2,3,4,9-tetrahydro-1H-pyrido[3,4-b]indol-5-amine]  31.9 nM
25. CCc1ccnc(N2CCc3c([nH]c4cc(F)c(Cl)cc34)C2c2ccc(F)cc2)n1 (stereo not drawn) [Compound 22, 6-chloro-2-(4-ethylpyrimidin-2-yl)-7-fluoro-1-(4-fluorophenyl)-2,3,4,9-tetrahydro-1H-pyrido[3,4-b]indole]  57.8 nM
26. Fc1cc(-n2ccnc2)ccc1C1c2[nH]c3ccc(Cl)cc3c2CCN1c1ncccn1 (stereo not drawn) [Compound 274, 6-chloro-1-[2-fluoro-4-(1H-imidazol-1-yl)phenyl]-2-(pyrimidin-2-yl)-2,3,4,9-tetrahydro-1H-pyrido[3,4-b]indole]  58.5 nM
27. Cc1nc(C)nc(N2CCc3c([nH]c4c(N)cc(Cl)cc34)C2c2ccc(C)c(F)c2F)n1 (stereo not drawn) [Compound 304, 6-chloro-1-(2,3-difluoro-4-methylphenyl)-2-(4,6-dimethyl-1,3,5-triazin-2-yl)-2,3,4,9-tetrahydro-1H-pyrido[3,4-b]indol-8-amine]  93.9 nM
28. Clc1ccc2[nH]c3c(c2c1)CCN(c1nccc(-c2ccccc2)n1)C3c1cnc(N2CCOCC2)nc1 (stereo not drawn) [Compound 475, 6-chloro-1-[2-(morpholin-4-yl)pyrimidin-5-yl]-2-(4-phenylpyrimidin-2-yl)-2,3,4,9-tetrahydro-1H-pyrido[3,4-b]indole]  116 nM
29. Fc1ccc(C2c3[nH]c4ccc(F)c(F)c4c3CCN2c2ncc(Cl)cn2)cc1 (stereo not drawn) [Compound 85, 2-(5-chloropyrimidin-2-yl)-5,6-difluoro-1-(4-fluorophenyl)-2,3,4,9-tetrahydro-1H-pyrido[3,4-b]indole]  162 nM
30. Oc1ccc(C2c3[nH]c4cc(F)c(Cl)cc4c3CCN2c2ncc(F)cn2)cn1 (stereo not drawn) [Compound 48, 5-[6-chloro-7-fluoro-2-(5-fluoropyrimidin-2-yl)-2,3,4,9-tetrahydro-1H-pyrido[3,4-b]indol-1-yl]pyridin-2-ol]  222 nM
